Assay results: patent US10689414B2 (Agios Pharmaceuticals, Inc., priority 2013, dated 2020)

System: U87MG cells
Assay: Cellular assay, inhibition of 2-HG production in U87MG cells
Format: cell-based
Conditions: Homo sapiens, U-87 MG, 48 h
Protocol: Cells (HT1080 or U87MG) are grown in T125 flasks in DMEM containing 10% FBS, 1× penicillin/streptomycin and 500 ug/mL G418 (present in U87MG cells only). They are harvested by trypsin and seeded into 96 well white bottom plates at a density of 5000 cell/well in 100 ul/well in DMEM with 10% FBS. […] Cells are incubated overnight at 37° C. in 5% CO2. The next day test compounds are made up at 2× the final concentration and 100 ul are added to each cell well. The final concentration of DMSO is 0.2% and the DMSO control wells are plated in row G. The plates are then placed in the incubator for 48 hours. […] The cell plate is placed back in the incubator for another 24 hours. At 72 hours post compound addition, 10 mL/plate of Promega Cell Titer Glo reagent is thawed and mixed. The cell plate is removed from the incubator and allowed to equilibrate to room temperature. Then 100 ul of Promega Cell Titer Glo reagent is added to each well of media. The cell plate is then placed on an orbital shaker for 10 minutes and then allowed to sit at room temperature for 20 minutes. The plate is then read for luminescence with an integration time of 500 ms.

SMILES	IC50
N#Cc1ccnc(N2C(=O)CC[C@H]2C(=O)N(c2cc(F)cc(F)c2)[C@H](C(=O)NC2CC(F)(F)C2)c2ccccc2)c1 [Compound 210, (S)-1-(4-Cyanopyridin-2-yl)-N—((S)-2-(3,3-difluorocyclobutylamino)-2-oxo-1-phenylethyl)-N-(3,5-difluorophenyl)-5-oxopyrrolidine-2-carboxamide]	< 100 nM
O=C(NC1CC(F)(F)C1)[C@H](c1ccccc1Cl)N(C(=O)[C@@H]1CCC(=O)N1c1ccc(F)cn1)c1cccc(F)c1 [Compound 29]	< 100 nM
O=C(NC1CC(F)(F)C1)[C@H](c1ccccc1Cl)N(C(=O)[C@@H]1CCC(=O)N1c1ncccn1)c1cc(F)cc(F)c1 [Compound 70, (S)—N—((S)-1-(2-Chlorophenyl)-2-((3,3-difluorocyclobutyl)amino)-2-oxoethyl)-N-(3,5-difluoro-phenyl)-5-oxo-1-(pyrimidin-2-yl)pyrrolidine-2-carboxamide]	< 100 nM
CC(C)(C)OC(=O)N1CC(=O)N(c2nccc(C#N)n2)[C@H](C(=O)N(c2cc(F)cc(F)c2)[C@H](C(=O)NC2CC(F)(F)C2)c2ccccc2Cl)C1 [Compound 98, (3S)-tert-butyl 3-((1-(2-chlorophenyl)-2-((3,3-difluorocyclobutyl)amino)-2-oxoethyl)(3,5-difluorophenyl)carbamoyl)-4-(4-cyanopyrimidin-2-yl)-5-oxopiperazine-1-carboxylate]	< 100 nM
N#Cc1ccnc(N2C(=O)[C@H](O)C[C@H]2C(=O)N(c2cccc(F)c2)[C@H](C(=O)NC2CCC(F)(F)CC2)c2ccccc2Cl)c1 [Compound 121, (2S,4R)—N—((S)-1-(2-Chlorophenyl)-2-((4,4-difluorocyclohexyl)amino)-2-oxoethyl)-1-(4-cyanopyridin-2-yl)-N-(3-fluorophenyl)-4-hydroxy-5-oxopyrrolidine-2-carboxamide]	< 100 nM
N#Cc1ccnc(N2C(=O)CC[C@H]2C(=O)N(c2cccc(C3CC3)c2)[C@H](C(=O)NC2CC(F)(F)C2)c2ccccc2Cl)n1 [Compound 182, (S)—N—((S)-1-(2-Chlorophenyl)-2-((3,3-difluorocyclobutyl)amino)-2-oxoethyl)-1-(4-cyanopyri-midin-2-yl)-N-(3-cyclopropylphenyl)-5-oxopyrrolidine-2-carboxamide]	< 100 nM
COc1cccc(N(C(=O)[C@@H]2CCC(=O)N2c2cc(C#N)ccn2)[C@H](C(=O)NC2CC(F)(F)C2)c2ccccc2Cl)c1 [Compound 129, (S)—N—((S)-1-(2C)-2-((3,3-difluorocyclobutyl)amino)-2-oxoethyl)-1-(4-cyanopyridin-2-yl)-N-(3-methoxyphenyl)-5-oxopyrrolidine-2-carboxamide]	< 100 nM
N#Cc1ccnc(N2C(=O)CC[C@H]2C(=O)N(c2cc(F)ccc2F)[C@H](C(=O)NC2CC(F)(F)C2)c2ccccc2Cl)c1 [Compound 197, (S)—N—((S)-1-(2-Chlorophenyl)-2-((3,3-difluorocyclobutyl)amino)-2-oxoethyl)-1-(4-cyanopyridin-2-yl)-N-(2,5-difluorophenyl)-5-oxopyrrolidine-2-carboxamide]	< 100 nM
N#Cc1ccnc(N2C(=O)[C@H](O)C[C@H]2C(=O)N(c2cc(F)cc(F)c2)[C@H](C(=O)NC2CC(F)(F)C2)c2ccccc2Cl)c1 [Compound 115, (2S,4R)—N—((S)-1-(2-Chlorophenyl)-2-((3,3-difluorocyclobutyl)amino)-2-oxoethyl)-1-(4-cyanopyridin-2-yl)-N-(3,5-difluorophenyl)-4-hydroxy-5-oxopyrrolidine-2-carboxamide]	< 100 nM
N#Cc1ccnc(N2C(=O)CC[C@H]2C(=O)N(c2cccc(CO)c2)[C@H](C(=O)NC2CC(F)(F)C2)c2ccccc2Cl)c1 [Compound 131, (S)—N—((S)-1-(2-Chlorophenyl)-2-(3,3-difluorocyclobutylamino)-2-oxoethyl)-1-(4-cyanopyridin-2-yl)-N-(3-(hydroxymethyl)phenyl)-5-oxopyrrolidine-2-carboxamide]	< 100 nM
N#Cc1ccnc(N2C(=O)CC[C@H]2C(=O)N(c2ccccc2F)[C@H](C(=O)NC2CC(F)(F)C2)c2ccccc2Cl)c1 [Compound 187, (S)—N—((S)-1-(2-Chlorophenyl)-2-((3,3-difluorocyclobutyl)amino)-2-oxoethyl)-1-(4-cyanopyridin-2-yl)-N-(2-fluorophenyl)-5-oxopyrrolidine-2-carboxamide]	< 100 nM
N#Cc1ccnc(N2C(=O)CC[C@H]2C(=O)N(c2cncc(F)c2)[C@H](C(=O)NC2CCC(F)(F)CC2)c2ccccc2Cl)c1 [Compound 193, (S)—N—((S)-1-(2-Chlorophenyl)-2-(4,4-difluorocyclohexylamino)-2-oxoethyl)-1-(4-cyanopyridin-2-yl)-N-(5-fluoropyridin-3-yl)-5-oxopyrrolidine-2-carboxamide]	< 100 nM
[2H]c1c([2H])c([2H])c([C@@H](C(=O)NC2CC(F)(F)C2)N(C(=O)[C@@H]2CCC(=O)N2c2cc(C#N)ccn2)c2cc(F)cc(F)c2)c(Cl)c1[2H] [Compound 163]	< 100 nM
CNS(=O)(=O)c1cccc(N(C(=O)[C@@H]2CCC(=O)N2c2cc(C#N)ccn2)[C@H](C(=O)NC2CC(F)(F)C2)c2ccccc2Cl)c1 [Compound 157]	< 100 nM
N#Cc1ccnc(N2C(=O)[C@@H](O)C[C@H]2C(=O)N(c2cc(F)cc(F)c2)[C@H](C(=O)NC2CC(F)(F)C2)c2ccccc2Cl)c1 [Compound 171, (2S,4S)—N—((S)-1-(2-Chlorophenyl)-2-((3,3-difluorocyclobutyl)amino)-2-oxoethyl)-1-(4-cyano-pyridin-2-yl)-N-(3,5-difluorophenyl)-4-hydroxy-5-oxopyrrolidine-2-carboxamide]	< 100 nM
N#Cc1ccnc(N2C(=O)[C@H](O)C[C@H]2C(=O)N(c2cccc(F)c2)[C@H](C(=O)NC2CC(F)(F)C2)c2ccccc2Cl)n1 [Compound 120, (2S,4R)—N—((S)-1-(2-Chlorophenyl)-2-((3,3-difluorocyclobutyl)amino)-2-oxoethyl)-1-(4-cyanopyrimidin-2-yl)-N-(3-fluorophenyl)-4-hydroxy-5-oxopyrrolidine-2-carboxamide]	100 to 500 nM
N#Cc1ccnc(N2C(=O)CC[C@H]2C(=O)N(c2cccc(OC(F)F)c2)[C@H](C(=O)NC2CC(F)(F)C2)c2ccccc2Cl)n1 [Compound 194, (S)—N—((S)-1-(2-Chlorophenyl)-2-((3,3-difluorocyclobutyl)amino)-2-oxoethyl)-1-(4-cyanopyrimidin-2-yl)-N-(3-(difluoromethoxy)phenyl)-5-oxopyrrolidine-2-carboxamide]	< 100 nM
N#Cc1ccnc(N2C(=O)CC[C@H]2C(=O)N(c2cc(F)cc(S(N)(=O)=O)c2)[C@H](C(=O)NC2CC(F)(F)C2)c2ccccc2Cl)c1 [Compound 158, (2S)—N-(1-(2-chlorophenyl)-2-(3,3-difluorocyclobutylamino)-2-oxo-ethyl)-1-(4-cyanopyridin-2-yl)-N-(3-fluoro-5-sulfamoylphenyl)-5-oxopyrrolidine-2-carboxamide]	< 100 nM
N#Cc1ccnc(N2C(=O)[C@@H](O)C[C@H]2C(=O)N(c2cccc(F)c2)[C@H](C(=O)NC2CCC(F)(F)CC2)c2ccccc2Cl)c1 [Compound 172, (2S,4S)—N—((S)-1-(2-Chlorophenyl)-2-((4,4-difluorocyclohexyl)amino)-2-oxoethyl)-1-(4-cyano-pyridin-2-yl)-N-(3-fluorophenyl)-4-hydroxy-5-oxopyrrolidine-2-carboxamide]	< 100 nM
CN1CC(=O)N(c2cc(C#N)ccn2)[C@H](C(=O)N(c2cc(F)cc(F)c2)[C@H](C(=O)NC2CC(F)(F)C2)c2ccccc2Cl)C1 [Compound 101, (S)—N—((S)-1-(2-chlorophenyl)-2-((3,3-difluorocyclobutyl)amino)-2-oxoethyl)-1-(4-cyanopyridin-2-yl)-N-(3,5-difluorophenyl)-4-methyl-6-oxopiperazine-2-carboxamide]	< 100 nM
N#Cc1ccnc(N2C(=O)CNC[C@H]2C(=O)N(c2cc(F)cc(F)c2)[C@H](C(=O)NC2CC(F)(F)C2)c2ccccc2Cl)c1 [Compound 100, (S)—N—((S)-1-(2-Chlorophenyl)-2-((3,3-difluorocyclobutyl)amino)-2-oxoethyl)-1-(4-cyanopyridin-2-yl)-N-(3,5-difluorophenyl)-6-oxopiperazine-2-carboxamide]	< 100 nM
CC(C)(C)OC(=O)N1CC(=O)N(c2cc(C#N)ccn2)[C@H](C(=O)N(c2cccc(F)c2)[C@H](C(=O)NC2CC(F)(F)C2)c2ccccc2Cl)C1 [Compound 89, (3S)-tert-Butyl 3-((1-(2-chlorophenyl)-2-((3,3-difluorocyclobutyl)amino)-2-oxoethyl)(3-fluorophenyl)carbamoyl)-4-(4-cyanopyridin-2-yl)-5-oxopiperazine-1-carboxylate]	< 100 nM
N#Cc1cccc(N(C(=O)[C@@H]2C[C@@H](O)C(=O)N2c2cc(C#N)ccn2)C(C(=O)NC2CC(F)(F)C2)c2ccccc2Cl)c1 (stereo partly drawn) [Compound 170, (2S,4R)—N-(1-(2-chlorophenyl)-2-((3,3-difluorocyclobutyl)amino)-2-oxoethyl)-N-(3-cyano-phenyl)-1-(4-cyanopyridin-2-yl)-4-hydroxy-5-oxopyrrolidine-2-carboxamide]	< 100 nM
N#Cc1ccnc(N2C(=O)CC[C@H]2C(=O)N(c2cccc(F)c2)[C@H](C(=O)NC2CC(F)(F)C2)c2ccccc2)c1 [Compound 138, (S)-1-(4-Cyanopyridin-2-yl)-N—((S)-2-((3,3-difluorocyclobutyl)amino)-2-oxo-1-phenylethyl)-N-(3-fluorophenyl)-5-oxopyrrolidine-2-carboxamide]	< 100 nM
